Holding throughout (format): cell-based
The target in data set [1] is T1, yeast α-factor receptor (STE2) (Saccharomyces cerevisiae, UniProt D6VTK4).
T1 construct: expressed in transfected cells; host or cells: yeast strain ARY84 (Δste2::ura3, plasmid pRS416(URA3)-STE2)
T1 sequence (D6VTK4 1-431): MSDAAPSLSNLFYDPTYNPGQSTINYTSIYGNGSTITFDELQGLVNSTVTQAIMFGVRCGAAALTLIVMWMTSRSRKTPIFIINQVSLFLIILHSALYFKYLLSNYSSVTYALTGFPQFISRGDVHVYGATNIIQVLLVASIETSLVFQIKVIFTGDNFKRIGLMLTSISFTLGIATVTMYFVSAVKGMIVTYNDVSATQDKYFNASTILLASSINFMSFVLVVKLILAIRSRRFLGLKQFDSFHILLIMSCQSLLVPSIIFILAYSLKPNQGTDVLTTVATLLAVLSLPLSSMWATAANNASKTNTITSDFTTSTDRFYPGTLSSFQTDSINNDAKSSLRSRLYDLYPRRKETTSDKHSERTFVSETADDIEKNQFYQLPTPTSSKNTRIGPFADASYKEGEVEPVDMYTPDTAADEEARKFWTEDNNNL
The data set is described as follows: Secretion of acid phosphatase into the medium by yeast ARY84 (pNPP assay). The following applies: for % of total acid-phosphatase activity in medium: 24 Hrs; for Induction ratio: growth selection, 500 nM vs no alpha-factor. An excerpt: The strain used in these experiments is designated ARY84 (Mata prc1-407 prb1-1122 pep4-3 leu2, 3-112 ura3-52 trp1 far1::ura3 Δhis3::APT2 FUS1::HIS3 Δste2::ura3 Δsst2::ura3 Δpho5::TRP1 LEU2::pCMGy64(::FUS1-PHO3) [pRS416(URA3)-STE2]. This yeast is engineered to grow in the presence of an agonist, and also to secrete acid phosphatase as a result of agonist stimulation. The yeast strain used in these experiments bears a mutation in the SST2 gene to enhance sensitivity to agonist, an inactivating mutation in the FAR1 gene to allow growth in the presence of agonist and an inactivating mutation in the HIS3 gene. The FUS1 gene promoter stimulates transcription of two reporter genes. The first reporter gene is HIS3. 3-aminotriazole can be used to titrate out the background activity of the HIS3 gene product resulting in growth arrest due to histidine starvation. Stimulation of HIS3 transcription from the FUS1 promoter overcomes the inhibitory effect of 3-aminotriazole, allowing growth of agonist-stimulated yeast cells. The second reporter gene is PHO3 (which was obtained by PCR from yeast genomic DNA). This gene encodes secreted yeast acid phosphatase (see Johnston & Carlson, in The Molecular and Cellular Biology of the Yeast Saccharomyce, (eds. Jones et al., CSHP, 1992) Vol. 2, Ch. 5). STE2 encodes the yeast α-factor receptor. The mutation in the […] reduces the background of acid phosphatase secreted by the yeast, though this mutation may not be necessary.
α-factor is the natural peptide agonist of the yeast α-factor receptor. The term "Growth selection" refers to growing the yeast in a defined medium (e.g., synthetic complete) (see Rose et al., Methods in Yeast Genetics: A Laboratory Course Manual (CSHLP, 1990)) lacking histidine and containing sufficient 3-aminotriazole to inhibit growth such that yeast only grow when the HIS3 gene product is expressed from the FUS1 promoter following stimulation of the STE2 receptor by α-factor. Lack of growth selection is achieved by leaving out the 3-aminotriazole and adding histdine.
Acid phosphatase activity in the yeast growth medium was quantitated using a […] assay with the substrate para-nitrophenyl phosphate (pNPP), measuring the appearance of yellow color (Payne et al., Gene 163, 19-26 (1995). When yeast were grown under various growth conditions (+/-saturating (500 nM) concentrations of α-factor, between 26% and 69% of the total acid phosphatase activity is secreted into the medium (Table 1).

The target of data set [2] is T1, yeast α-factor receptor (STE2). The data set is described as follows: ELISA of agonist-induced well marking by ARY84 (dephosphorylation of AF12402 tether, 3E7 detection). To be noted: for Well-marking activity: selective conditions. The method, then:
A plastic 96-well immunoassay plate (Beckman #373660) was coated with 0.41 μM streptavidin for 1 hour at 37° C. After washing, it was blocked with 1×PBS, 1% bovine serum albumin (BSA) for 1 hr at 37° C. After washing, 100 nM of AF12402 ((H)-(Phospho-Y)[…](biotin)(OH)) (SEQ ID NO:7) in 1×PBS, 0.1% BSA was incubated on the plate overnight at 4° C. The wells were washed with 1×PBS and a yeast culture containing ARY84 at a density of OD600 =0.1 in defined medium was added to the plate. The following conditions were tested: +growth selection, no α-factor; +growth selection, +500 nM α-factor.
After addition of yeast the culture was either removed immediately (t=0; wells were filled with 1×PBS/ 0.1% BSA) or after 24 hr incubation at 30° C. At the end of the incubation, the wells were washed and developed using a standard protocol with 1 nM 3E7 antibody for the primary development (4° C., 1 hr) and 1/1000 diluted alkaline phosphatase conjugated goat anti-mouse antibody (Gibco) at 4° C. for 1 hr. Binding of antibodies was quantitated using a standard colorimetric alkaline-phosphatase reaction (see Cull et al., PNAS 89, 1865-1869 (1992)).
In general terms: An ELISA detects its analyte on a solid surface through an enzyme-linked reagent.

The target in data set [3] is T2, yeast alpha factor receptor (STE2) (Saccharomyces cerevisiae, UniProt D6VTK4).
T2 construct: expressed in transfected cells; host or cells: yeast strain ARY 110 with plasmid pRS416-STE2
T2 sequence (D6VTK4 1-431): T1 sequence (D6VTK4 1-431)
As to the kind of experiment: Secreted β-galactosidase reporter in yeast ARY 110 (FUS1 promoter). The following applies: ARY110 culture supernatants. From the text:
A second expression system links the A. niger secreted β-galactosidasegene to the yeast mating pathway/FUS1 promoter induction system. Using the integrating beta-galactosidase encoding plasmid pCMGy69 in concert with the yeast alpha factor receptor (STE2) encoding plasmid, PRS416-STE2 (centomeric), a yeast strain designated ARY 110 was produced with the following genotype; (far1 his3 sst2 FUS1-HIS3 FUS1-sBeta-Gal STE2).

For α-factor, the “Increase in acid phosphatase activity in the medium compared to absence of α-factor” value is recorded as 16-20 fold in data set [1] (500 nM α-factor, no growth selection, 24 hr) and 32-58 fold in data set [1] (with growth selection, 48 hours, 0.5 µM). In addition, the “% of total acid-phosphatase activity in medium” value in data set [1] (alpha-factor +, growth selection +) came out at 63%; in data set [1] (alpha-factor +, growth selection -), 69%. Moreover, the “Acid phosphatase activity in the medium” value amounted to 0.01279 OD405 units/minute in data set [1] (24 hours, selection +, alpha-factor +, clone #1); 0.02892 OD405 units/minute in data set [1] (24 hours, selection +, alpha-factor +, clone s3); 0.06481 OD405 units/minute in data set [1] (24 hours, selection -, alpha-factor +, clone #1); 0.1001 OD405 units/minute in data set [1] (24 hours, selection -, alpha-factor +, clone s3); 0.05768 OD405 units/minute in data set [1] (48 hr, growth selection (+10 mM 3-aminotriazole), 500 nM alpha-factor, clone #1); 0.1062 OD405 units/minute in data set [1] (48 hr, growth selection (+10 mM 3-aminotriazole), 500 nM alpha-factor, clone s3). Further, the Induction ratio in data set [1] (48 hr, clone #1) is recorded as 32.4; in data set [1] (48 hr, clone s3), 58.7. In data set [2] (24 hr growth of yeast in the wells, 0.5 µM), the “Increase in OD405 compared to wells lacking α-factor” value came to 4 fold. Also, the Well-marking activity came to 0.11 OD405 units/minute in data set [2] (T = 0, 500 nM alpha factor); 0.113 OD405 units/minute in data set [2] (T = 0, 500 nM alpha factor, listed as alpha factor); 0.8 OD405 units/minute in data set [2] (T = 24 Hrs, 500 nM alpha factor). For the same substance, in data set [3], the “beta-galactosidase activity in supernatants over non-induced levels” value is “up to 79 fold”.

The values are drawn from patent US6309842A, “Use of modified tethers in screening compound libraries” (Glaxo Wellcome Inc., priority 1997, dated 2001).
